Reference: patent US20090215783A1, “COMPOSITION FOR INDUCTION OR INHIBITION OF STEM CELL DIFFERENTIATION” (CHOONGWAE PHARMA CORPORATION, priority 2006, published 2009)

Assays:
[1] = test system: human bone marrow derived-mesenchymal stem cells (hBMMSC); assay: Osteogenesis modulating activity assay by test compound alone (ALP activity); assay type: cell-based; conditions: Homo sapiens, 168 h; hBMMSC, 20 μM test compound alone, six to seven days; read-out: Osteogenesis: fold change of ALP activity compared with DMSO control
Experimental: Cell culture: Human bone marrow derived-mesenchymal stem cells (hBMMSC) were isolated from normal subjects.
Osteogenesis modulating activity assay by test compound alone: hBMMSC were cultivated in the culture medium and cells were seeded into 96-well culture plates and test compounds were dissolved in DMSO and diluted with culture media (final 0.01% DMSO) and added into the media (final concentration of test compound was 20 μM) and cultured in the CO2 incubator (37° C., 5% CO2). Culture medium was changed every two days with fresh one and compound was treated again whenever medium was changed. Six to seven days after incubation, Alkaline phosphatase activity of cell lysates was measured by colorimetry. For the determination of mineralization within the cells, Von Kossa staining or Alizarin Red S assay was performed 10-14 days after incubation.

[2] = test system: Mouse embryonic stem (ES) cells, TC1; assay: Cardiomyogenesis modulating activity assay (alpha-MHC promoter EGFP, embryoid bodies, FACS/fluorescence microscopy); assay type: cell-based; conditions: embryoid bodies treated for 5 days, FACS
Experimental: a. Cell culture: Mouse embryonic stem (ES) cells, TC1 derived from 129/S6 strain were cultured on irradiated feeder layer in the culture medium which is high-glucose DMEM (Gibco) BRL, Germany) supplemented with 15% FBS (Hyclone), 0.1 mM beta-mercaptoethanol, […] sodium pyruvate, 1 mM L-glutamine and 1× non-essential amino acids.
b. Establishment of alpha-MHC stably transformed ES cell line: A construct (FIG. 8) containing 1.8 kb promoter sequence of the mouse alpha-MHC gene between EcoRI and SalI sites of pEGFP-1 (Clontech Laboratories, Inc, CA, USA) was linearized at XhoI site, and was introduced into mouse ES cells, TC1, using the Gene Pulser II (BioRad, MA). A selection medium containing G418 was applied for two weeks from 24 hours after electroporation. The selected ES cell clones were harvested and expanded on the feeder cell layer. The green fluorescence-expressing clones when differentiated into cardiomyocytes were used in this experiment.
c. Cardiomyogenesis modulating activity assay: Embryoid body (EB) was formed by hanging drop culture using about a number of 600 (six hundred) ES cells for two days and it was further expanded by culturing in suspension condition on a Petri-dish for another two days. Then each EB was plated on a well of 96 well culture plates. Test compounds were dissolved in DMSO and diluted with culture media (final 0.05% DMSO) and EB was treated with test compound for 5 days. Culture medium was changed every three days after plating. Expression level of EGFP was measured with FACS (Beckman). For FACS analysis, differentiating cells were dissociated with trypsin. For the determination of the extent of differentiation, EB was observed and photographed with an inverted fluorescence microscope (Zeiss, Germany). Number of beating EBs was counted under the microscope and recorded once daily.

SMILES	fold induction at 20 µM [1]	Cardiomyogenesis: fold change of EGFP expression level compared with DMSO control [2]
CN1CC(=O)N2C(Cc3ccc(Oc4ccccc4)cc3)C(=O)N(Cc3cccc4ccccc34)CC2N1C(=O)NCc1ccccc1 (stereo not shown) [#1]	0.36	1.21 fold
CC(C)C[C@H]1C(=O)N(CC(=O)N(Cc2ccccc2)c2ccccc2)CC2N1C(=O)CN(C)N2C(=O)NCc1ccccc1 (stereo partly shown) [#2]	1.09	1.11 fold
CC(C)C[C@H]1C(=O)N(CCOc2ccccc2N)CC2N1C(=O)CN(C)N2C(=O)NCc1ccccc1 (stereo partly shown) [#3]	1.29	1.25 fold
CC(C)C[C@H]1C(=O)N(CC(=O)N(c2ccccc2)c2cccc(Cl)c2)C[C@H]2N1C(=O)CN(C)N2C(=O)NCc1ccccc1 [#4]	0.59	0.40 fold
CC(C)C[C@H]1C(=O)N(CC(=O)N2c3ccccc3Oc3ccccc32)C[C@H]2N1C(=O)CN(C)N2C(=O)NCc1ccccc1 [#5]	0.29	0.36 fold
CN1CC(=O)N2C(CN(Cc3ccc(Cl)c(Cl)c3)C(=O)[C@H]2Cc2ccc(O)cc2)N1C(=O)NCc1cccnc1 (stereo partly shown) [#6]	0.51	0.47 fold
CN1CC(=O)N2[C@@H](Cc3ccc(O)c(C(C)(C)C)c3)C(=O)N(Cc3cccc4cccnc34)C[C@@H]2N1C(=O)NCc1ccccc1 [#7]	0.51	1.22 fold
CN1CC(=O)N2[C@@H](CN(Cc3cccc(Cl)c3)C(=O)[C@H]2c2ccc(O)cc2)N1C(=O)NCc1ccccc1 [#8]	0.55	0.65 fold
CN1CC(=O)N2C(CN(Cc3ccc(F)cc3)C(=O)[C@@H]2Cc2ccc(O)cc2)N1C(=O)NCc1ccccc1 (stereo partly shown) [#9]	0.24	1.59 fold
CN1CC(=O)N2[C@@H](Cc3ccc(O)cc3)C(=O)N(Cc3cccc4[nH]ncc34)C[C@@H]2N1C(=O)NCc1ccccc1 [#11]	0.3	0.07 fold
C#CCNC(=O)N1[C@H]2CN(Cc3cccc4ccccc34)C(=O)[C@H](Cc3ccc(O)cc3)N2C(=O)CN1C [#12]	0.76	1.27 fold
C=CCN1CC(=O)N2C(Cc3ccc(O)cc3)C(=O)N(Cc3ccc(F)cc3F)C[C@H]2N1C(=O)NCc1ccccc1 (stereo partly shown) [#13]	0.47	1.02 fold
C=CCN1CC(=O)N2[C@@H](Cc3ccc(O)cc3)C(=O)N(Cc3ccc(F)c4scnc34)C[C@@H]2N1C(=O)NCc1ccccc1F [#14]	0.29	
CC(C)CN1C[C@H]2N(C(=O)CN(C)N2C(=O)NCc2ccccc2)[C@@H](Cc2ccc(O)cc2)C1=O [#15]	1.12	0.41 fold
CC(C)CN1C[C@H]2N(C(=O)CN(C)N2C(=O)NCc2ccccc2)[C@@H](CC(=O)O)C1=O [#16]	0.97	1.42 fold
CC(C)CN1C[C@H]2N(C(=O)CN(C)N2C(=O)NCc2ccccc2)[C@@H](CCC(=O)O)C1=O [#17]	1.29	2.52 fold
CC(C)CN1C[C@H]2N(C(=O)CN(C)N2C(=O)NCc2ccccc2)[C@@H](c2ccccc2)C1=O [#18]	0.93	2.01 fold
COc1ccc(CN2CC3N(C(=O)CN(C)N3C(=O)NCc3ccccc3)C(Cc3ccc(O)cc3)C2=O)cc1 (stereo not shown) [#19]	0.7	3.03 fold
COc1ccc(CN2C[C@H]3N(C(=O)CN(C)N3C(=O)NCc3ccccc3)[C@@H](CC(C)C)C2=O)cc1 [#20]	1.06	2.17 fold
COc1ccc(CN2C[C@H]3N(C(=O)CN(C)N3C(=O)NCc3ccccc3)[C@@H](C(C)C)C2=O)cc1 [#21]	1.21	0.62 fold
COc1ccc(CN2C[C@H]3N(C(=O)CN(C)N3C(=O)NCc3ccccc3)[C@@H](Cc3ccccc3)C2=O)cc1 [#22]	0.7	1.16 fold

SMILES	fold induction at 20 µM [1]	Cardiomyogenesis: fold change of EGFP expression level compared with DMSO control [2]
CCC(C)[C@H]1C(=O)N(Cc2ccc(OC)cc2)C[C@H]2N1C(=O)CN(C)N2C(=O)NCc1ccccc1 (stereo partly shown) [#23]	0.86	1.69 fold
CCC[C@H]1C(=O)N(Cc2ccc(OC)cc2)C[C@H]2N1C(=O)CN(C)N2C(=O)NCc1ccccc1 [#24]	0.85	1.57 fold
COc1ccc(CN2C[C@H]3N(C(=O)CN(C)N3C(=O)NCc3ccccc3)[C@@H](c3ccccc3)C2=O)cc1 [#25]	0.6	1.78 fold
C=CCOC(=O)NCCC[C@@H]1C(=O)N(Cc2ccc(OC)cc2)CC2N1C(=O)CN(C)N2C(=O)NCc1ccccc1 (stereo partly shown) [#26]	1.01	1.74 fold
CN1CC(=O)N2C(Cc3ccc(OCc4ccccc4)cc3)C(=O)N(CCCc3ccccc3)CC2N1C(=O)NCc1ccccc1 (stereo not shown) [#27]	0.96	0.52 fold
CN1CC(=O)N2[C@@H](CC3CCCCC3)C(=O)N(CCCc3ccccc3)C[C@@H]2N1C(=O)NCc1ccccc1 [#28]	0.26	1.23 fold
CCCCNC(=O)N1[C@H]2CN([C@@H](C)c3ccccc3)C(=O)[C@H](Cc3ccc(O)cc3)N2C(=O)CN1Cc1ccc(C)cc1 [#45]	1.08	
CCCCNC(=O)N1[C@H]2CN([C@@H](C)c3ccccc3)C(=O)[C@H](Cc3ccccc3)N2C(=O)CN1Cc1ccc(C)cc1 [#47]		2.32 fold
CCCCNC(=O)N1[C@H]2CN([C@@H](C)c3ccccc3)C(=O)[C@H](CCC)N2C(=O)CN1Cc1ccc(C)cc1 [#48]		1.02 fold
CCCCNC(=O)N1[C@H]2CN([C@@H](C)c3ccccc3)C(=O)[C@H](CC(=O)O)N2C(=O)CN1Cc1ccc(C)cc1 [#49]		1.14 fold
CCCCNC(=O)N1[C@H]2CN([C@@H](C)c3ccccc3)C(=O)[C@H](CCC(=O)O)N2C(=O)CN1Cc1ccc(C)cc1 [#50]		0.26 fold
C#CCN1CC(=O)N2C(Cc3ccc(Cl)cc3)C(=O)N(CCCCCCC)C[C@@H]2N1C(=O)NCc1ccccc1 (stereo partly shown) [#52]		1.99 fold
O=C1[C@H](Cc2ccc(O)cc2)N2C(=O)CN(Cc3ccccc3)N(C(=O)NCc3ccccc3)C2CN1Cc1cccc(F)c1 (stereo partly shown) [#53]		1.95 fold
CC(C)C[C@H]1C(=O)N(Cc2cccc(F)c2)C[C@H]2N1C(=O)CN(Cc1ccccc1)N2C(=O)NCc1ccccc1 [#54]		1.42 fold
O=C1[C@H](Cc2ccccc2)N2C(=O)CN(Cc3ccccc3)N(C(=O)NCc3ccccc3)[C@H]2CN1Cc1cccc(F)c1 [#56]		1.08 fold
CCC[C@H]1C(=O)N(Cc2cccc(F)c2)C[C@H]2N1C(=O)CN(Cc1ccccc1)N2C(=O)NCc1ccccc1 [#58]		1.91 fold
O=C(O)C[C@H]1C(=O)N(Cc2cccc(F)c2)C[C@H]2N1C(=O)CN(Cc1ccccc1)N2C(=O)NCc1ccccc1 [#59]		0.48 fold
O=C1[C@H](c2ccccc2)N2C(=O)CN(Cc3ccccc3)N(C(=O)NCc3ccccc3)[C@H]2CN1Cc1cccc(F)c1 [#60]		1.23 fold
O=C1[C@@H](Cc2ccccc2)N2C(=O)CN(Cc3ccc(F)cc3)N(C(=O)NCc3ccccc3)[C@@H]2CN1Cc1cccc(C(F)(F)F)c1 [#61]		1.06 fold
O=C1[C@H](COCc2ccccc2)N2C(=O)CN(Cc3ccc(F)cc3)N(C(=O)NCc3ccccc3)C2CN1Cc1cccc(C(F)(F)F)c1 (stereo partly shown) [#62]		0.89 fold
